These results are taken from patent US11629143B2, “HipK4 inhibitors and uses thereof” (Vibliome Therapeutics, LLC, priority 2020, dated 2023).

A value given as a limit tells only on which side of the number the result lay.

The target of one experiment is T1, HIPK4 (Homo sapiens, UniProt Q8NE63).
T1 sequence (Q8NE63 1-616): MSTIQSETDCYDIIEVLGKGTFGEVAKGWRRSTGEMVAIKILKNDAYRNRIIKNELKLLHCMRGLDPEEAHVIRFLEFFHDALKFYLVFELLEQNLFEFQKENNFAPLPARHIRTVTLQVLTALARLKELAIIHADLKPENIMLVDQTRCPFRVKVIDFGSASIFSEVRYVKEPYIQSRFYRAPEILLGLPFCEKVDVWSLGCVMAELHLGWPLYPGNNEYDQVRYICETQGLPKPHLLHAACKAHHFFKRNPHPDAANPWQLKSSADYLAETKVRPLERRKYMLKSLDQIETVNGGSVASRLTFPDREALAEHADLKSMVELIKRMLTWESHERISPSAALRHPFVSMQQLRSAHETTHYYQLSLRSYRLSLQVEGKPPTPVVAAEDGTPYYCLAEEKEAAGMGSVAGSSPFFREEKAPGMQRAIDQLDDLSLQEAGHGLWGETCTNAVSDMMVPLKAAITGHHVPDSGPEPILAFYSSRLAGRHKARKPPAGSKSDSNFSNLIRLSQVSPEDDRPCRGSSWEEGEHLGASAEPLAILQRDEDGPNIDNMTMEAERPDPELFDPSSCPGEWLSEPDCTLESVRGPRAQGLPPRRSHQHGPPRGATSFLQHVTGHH
The experiment can be described thus: Kinase panel (mobility shift). In kind it is biochemical. In short, it runs like this:
(§1)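 Microfluidic mobility-shift readout: product and substrate peaks are resolved by charge, and their fluorescence is compared to give enzyme activity. Enzyme, fluorescent substrate and test compound are reacted, then terminated before chip loading. Values are binned at 5 um: A 95% or greater, B 90%-94%, C 80%-89%.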

In a further experiment the target is T2, DDR2 (Homo sapiens, UniProt Q16832).
T2 sequence (Q16832 22-855): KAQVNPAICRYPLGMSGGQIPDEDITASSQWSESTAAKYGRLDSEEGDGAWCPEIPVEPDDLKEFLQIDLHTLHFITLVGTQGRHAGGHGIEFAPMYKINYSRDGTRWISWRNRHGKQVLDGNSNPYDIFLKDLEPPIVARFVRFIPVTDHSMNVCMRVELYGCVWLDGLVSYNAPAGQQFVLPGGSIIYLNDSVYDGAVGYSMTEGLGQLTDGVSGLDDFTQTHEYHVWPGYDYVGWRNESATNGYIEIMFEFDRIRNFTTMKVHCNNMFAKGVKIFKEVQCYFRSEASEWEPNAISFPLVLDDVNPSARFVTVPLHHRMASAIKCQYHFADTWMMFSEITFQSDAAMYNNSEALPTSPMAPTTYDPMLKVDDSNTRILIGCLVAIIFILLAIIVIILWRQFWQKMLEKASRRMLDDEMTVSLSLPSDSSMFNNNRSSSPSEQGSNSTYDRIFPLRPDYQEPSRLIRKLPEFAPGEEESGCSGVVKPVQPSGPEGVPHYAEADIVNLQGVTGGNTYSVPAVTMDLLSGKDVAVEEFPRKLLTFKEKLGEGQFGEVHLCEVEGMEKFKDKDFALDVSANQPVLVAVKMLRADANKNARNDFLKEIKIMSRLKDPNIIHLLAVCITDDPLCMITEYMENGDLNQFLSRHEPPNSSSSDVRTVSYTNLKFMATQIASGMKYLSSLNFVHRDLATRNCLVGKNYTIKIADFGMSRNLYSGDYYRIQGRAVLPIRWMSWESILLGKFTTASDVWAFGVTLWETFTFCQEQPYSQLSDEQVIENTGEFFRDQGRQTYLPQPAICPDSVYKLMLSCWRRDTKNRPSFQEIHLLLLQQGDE
The experiment is described as follows: Kinase panel (mobility shift). The class given is biochemical. Summed up:
as §1

Usually inhibition stands for the change of the read-out against control, counted positive when it falls.

Regarding `CSc1nc(C(=O)Nc2ccc(Oc3ccnc(C(=O)NC4CNC4)c3)c(F)c2)c(-c2ccc(F)s2)o1` [Compound 27], the results for the inhibition at 5 µM on HIPK4 and on DDR2 were at least 95% and below 50%, respectively.
On to `CSc1nc(C(=O)Nc2ccc(Oc3ccnc(C(=O)NC4COC4)c3)c(F)c2)c(-c2ccc(F)s2)o1` [Compound 28], for which the figures for the inhibition at 5 µM at HIPK4 and at DDR2 were at least 95% and below 50%, respectively.
On the same counts, the results for `CNC(=O)c1cc(Oc2ccc(NC(=O)c3nc(SC(C)C)oc3-c3ccc(F)cc3)cc2F)ccn1` [Compound 34] are at least 95% and 50 to 79%.
On the same counts, the results for `[2H]C([2H])([2H])NC(=O)c1cc(Oc2ccc(NC(=O)c3nc(SC)oc3-c3ccc(F)c(F)c3)cc2F)ccn1` [Compound 33] are at least 95% and 80 to 89%.
The corresponding values for `CNC(=O)c1cc(Oc2ccc(NC(=O)c3nc(OC)oc3-c3ccc(F)cc3)cc2F)ccn1` [Compound 15] are at least 95% and 90 to 94%.
Consider `CNC(=O)c1cc(Oc2ccc(NC(=O)c3nc(NC)sc3-c3ccc(F)cc3C)cc2F)ccn1` [Compound 23], for which the inhibition at 5 µM on HIPK4 lay in the range of 90 to 94%; on DDR2, 50 to 79%.
Regarding `CNC(=O)c1cc(Oc2ccc(NC(=O)c3nc(SC)oc3-c3ccc(F)cc3Cl)cc2)ccn1` [Compound 3], the values for the inhibition at 5 µM at HIPK4 and on DDR2 were at least 95% and 80 to 89%, respectively.
With `CSc1nc(C(=O)Nc2ccc(Oc3ccnc(C(=O)NC4COC4)c3)c(F)c2)c(-c2ccc(F)c(F)c2)o1` [Compound 37], the values for the inhibition at 5 µM on HIPK4 and at DDR2 were at least 95% and below 50%, respectively.
On the same counts, the results for `CSc1nc(C(=O)Nc2ccc(Oc3ccnc(C(=O)NC4CNC4)c3)c(F)c2)c(-c2ccc(F)cc2)o1` [Compound 29] are at least 95% and 50 to 79%.
On the same counts, the results for `CSc1nc(C(=O)Nc2ccc(Oc3ccnc(-c4cnn(C)c4)c3)c(F)c2)c(-c2ccc(F)cc2)o1` [Compound 11] are at least 95% and at least 95%.
The corresponding values for `CNC(=O)c1cc(Oc2ccc(NC(=O)c3nc(OC)oc3-c3ccc(F)s3)cc2F)ccn1` [Compound 25] are at least 95% and 50 to 79%.
In the case of `CNC(=O)c1cc(Oc2ccc(NC(=O)c3nc(NC)oc3-c3ccc(F)s3)cc2F)ccn1` [Compound 17], the figures for the inhibition at 5 µM at HIPK4 and on DDR2 were at least 95% and 50 to 79%, respectively.
The corresponding values for `CNC(=O)c1cc(Oc2ccc(NC(=O)c3nc(SC)oc3-c3ccc(F)cc3F)cc2F)ccn1` [Compound 12] are 90 to 94% and 80 to 89%.
For `CSc1nc(C(=O)Nc2ccc(Oc3ccnc(C(=O)NCCN(C)C)c3)c(F)c2)c(-c2ccc(F)cc2)o1` [Compound 41], the results for the inhibition at 5 µM at HIPK4 and on DDR2 were at least 95% and 50 to 79%, respectively.
The corresponding values for `CNC(=O)c1cc(Oc2ccc(NC(=O)c3nc(C4CC4)oc3-c3ccc(F)cc3)cc2F)ccn1` [Compound 26] are at least 95% and 80 to 89%.
On the same counts, the results for `CNC(=O)c1cc(Oc2ccc(NC(=O)c3nc(S(C)(=O)=O)sc3-c3ccc(F)cc3)cc2F)ccn1` [Compound 13] are at least 95% and 80 to 89%.
On the same counts, the results for `CNC(=O)c1cc(Oc2ccc(NC(=O)c3nc(COC)oc3-c3ccc(F)cc3)cc2F)ccn1` [Compound 30] are at least 95% and 90 to 94%.
For the molecule `CNC(=O)c1cc(Oc2ccc(NC(=O)c3nc(SC)oc3-c3ccc(F)c(F)c3)cc2)ccn1` [Compound 4], the inhibition at 5 µM at HIPK4 is at least 95%; at DDR2, 80 to 89%.
Take `CSc1nc(C(=O)Nc2ccc(Oc3ccnc(N)c3Cl)c(F)c2)c(-c2ccc(F)cc2)o1` [Compound 1]: the inhibition at 5 µM is 90 to 94% on HIPK4 and 50 to 79% at DDR2.
The corresponding values for `CNC(=O)c1cc(Oc2c(F)cc(NC(=O)c3nc(NC)sc3-c3ccc(F)cc3)cc2F)ccn1` [Compound 19] are at least 95% and 80 to 89%.
On the same counts, the results for `CSc1nc(C(=O)Nc2ccc(Oc3ccnc(C(=O)NC4COC4)c3)c(F)c2)c(-c2ccc(F)cc2)o1` [Compound 31] are at least 95% and 50 to 79%.
The corresponding values for `CNC(=O)c1cc(Oc2ccc(NC(=O)c3nc(SC)oc3-c3ccc(OC)cc3)cc2)ccn1` [Compound 7] are 90 to 94% and 80 to 89%.
Take `CSc1nc(C(=O)Nc2ccc(Oc3ccnc(C(=O)NC4CCN(C)CC4)c3)c(F)c2)c(-c2ccc(F)cc2)o1` [Compound 42]: the inhibition at 5 µM at HIPK4 was at least 95%; on DDR2, 50 to 79%.
The corresponding values for `COc1nc(C(=O)Nc2ccc(Oc3ccnc(C(=O)NC4COC4)c3)c(F)c2)c(-c2ccc(F)cc2)o1` [Compound 39] are at least 95% and 50 to 79%.
With `CNC(=O)c1cc(Oc2ccc(NC(=O)c3nc(SC)oc3-c3ccc(F)s3)cc2F)ccn1` [Compound 16], the inhibition at 5 µM was at least 95% on HIPK4 and below 50% on DDR2.
The corresponding values for `COc1nc(C(=O)Nc2ccc(Oc3ccnc(C(=O)NCC(F)(F)F)c3)c(F)c2)c(-c2ccc(F)cc2)o1` [Compound 43] are at least 95% and below 50%.
As to `CNC(=O)c1cc(Oc2ccc(NC(=O)c3nc(NC)sc3-c3ccc(F)cc3F)cc2F)ccn1` [Compound 21], the inhibition at 5 µM on HIPK4 is at least 95%; on DDR2 it was 50 to 79%.
The corresponding values for `CSc1nc(C(=O)Nc2ccc(Oc3ccnc(C(=O)NCC(F)(F)F)c3)c(F)c2)c(-c2ccc(F)cc2)o1` [Compound 40] are at least 95% and 50 to 79%.
On the same counts, the results for `CNC(=O)c1cc(Oc2ccc(NC(=O)c3nc(OCC(F)(F)F)oc3-c3ccc(F)cc3)cc2F)ccn1` [Compound 38] are at least 95% and 50 to 79%.
The corresponding values for `CNC(=O)c1cc(Oc2ccc(NC(=O)c3nc(OC4CC4)oc3-c3ccc(F)cc3)cc2F)ccn1` [Compound 32] are at least 95% and 80 to 89%.
For `CSc1nc(C(=O)Nc2ccc(Oc3cc4cnn(C)c4cc3Br)c(F)c2)c(-c2ccc(F)cc2)o1` [Compound 2], the inhibition at 5 µM on HIPK4 is at least 95%; on DDR2, 50 to 79%.
The corresponding values for `[2H]C([2H])([2H])NC(=O)c1cc(Oc2ccc(NC(=O)c3nc(SC)oc3-c3ccc(F)s3)cc2F)ccn1` [Compound 35] are at least 95% and 50 to 79%.
On the same counts, the results for `CNC(=O)c1cc(Oc2ccc(NC(=O)c3nc(OC)oc3-c3ccc(F)c(F)c3)cc2F)ccn1` [Compound 24] are at least 95% and 80 to 89%.
Regarding `CNC(=O)c1ccc(Oc2ccc(NC(=O)c3nc(Cl)oc3-c3ccc(F)cc3)c(F)c2)cn1` [Compound 36], the inhibition at 5 µM was 80 to 89% on HIPK4 and below 50% on DDR2.
The corresponding values for `CNC(=O)c1cc(Oc2ccc(NC(=O)c3nc(SC)oc3-c3ccc(F)cc3F)cc2)ccn1` [Compound 6] are 90 to 94% and 80 to 89%.
On the same counts, the results for `CNC(=O)c1cc(Oc2ccc(NC(=O)c3nc(SC)oc3-c3ccc(Cl)s3)cc2)ccn1` [Compound 5] are 90 to 94% and 80 to 89%.
The corresponding values for `CNC(=O)c1cc(Oc2ccc(NC(=O)c3nc(NC)oc3-c3ccc(F)cc3)cc2F)ccn1` [Compound 14] are at least 95% and at least 95%.
